Laboratory results taken from PubChem BioAssay (NCI).
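96-well plates; 48 h exposure; 5 concentrations. Endpoints by linear interpolation between flanking doses. Not reached: highest tested concentration assigned. GI50 = concentration required for 50% inhibition of growth. TGI: total growth inhibition.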

How the values were obtained:
Test in all cases: growth of human tumour cells (NCI), 48 h
A498 renal = test system: A498 renal
HOP-92 NSCLC = test system: HOP-92 NSCLC
SF-295 CNS = test system: SF-295 CNS
MDA-MB-231 breast = test system: MDA-MB-231 breast
K-562 leukemia = test system: K-562 leukemia
OVCAR-4 ovarian = test system: OVCAR-4 ovarian
SK-MEL-2 melanoma = test system: SK-MEL-2 melanoma
HCT-116 colon = test system: HCT-116 colon
MCF7 breast = test system: MCF7 breast
NCI-H460 lung = test system: NCI-H460 lung

SMILES	GI50 (A498 renal)	TGI (A498 renal)	GI50 (HOP-92 NSCLC)	TGI (HOP-92 NSCLC)	GI50 (SF-295 CNS)	TGI (SF-295 CNS)	GI50 (MDA-MB-231 breast)	TGI (MDA-MB-231 breast)	GI50 (K-562 leukemia)	TGI (K-562 leukemia)	GI50 (OVCAR-4 ovarian)	TGI (OVCAR-4 ovarian)	GI50 (SK-MEL-2 melanoma)	TGI (SK-MEL-2 melanoma)	GI50 (HCT-116 colon)	TGI (HCT-116 colon)	GI50 (MCF7 breast)	TGI (MCF7 breast)	GI50 (NCI-H460 lung)	TGI (NCI-H460 lung)
c1cc(N2CCN(c3ccc(C4=NCCCN4)cc3)CC2)ccc1C1=NCCCN1	29.2 µM	> 100 µM	73 µM	> 100 µM	> 25.1 µM	> 100 µM	> 62.6 µM	> 100 µM	> 65.5 µM	> 100 µM	71.8 µM	> 100 µM	> 100 µM	> 100 µM	50200 nM	> 100 µM	> 57.5 µM	> 100 µM	> 58.6 µM	> 100 µM
Cc1[nH]c(-c2cc(N)ccc2Cl)c2c1C(=O)CCCC2	3.22 µM	9.84 µM	1.93 µM	63.8 µM	8.01 µM	> 100 µM	3.82 µM	> 100 µM	3.59 µM	> 100 µM	2.95 µM	> 100 µM	7.65 µM	60.7 µM	3920 nM	> 100 µM	2.32 µM	> 100 µM	10.3 µM	> 100 µM
COc1cc2ncc3c(nc4sccn43)c2cc1OC	8.01 µM	> 100 µM	15.8 µM	39 µM	18.3 µM	62.8 µM	24.2 µM	78.3 µM	31.6 µM	> 100 µM	32 µM	70.4 µM	31.1 µM	> 100 µM	13700 nM	78.2 µM	36.8 µM	> 100 µM	13.6 µM	> 100 µM
CC(C)C[C@H](NC(=O)CCn1ccc2ccccc2c1=O)B(O)O	1.22 µM	4.79 µM	10.9 µM	67.1 µM	3.77 µM	19.6 µM	9.45 µM	59.3 µM	4.97 µM	> 100 µM	17 µM	> 100 µM	3.58 µM	32.5 µM	1550 nM	19.8 µM	4.35 µM	> 100 µM	13 µM	56.2 µM
COc1cc(/C=C/c2ccc3c(Br)cc(Br)c(O)c3n2)ccc1O	9.43 µM	21.8 µM	4.77 µM	20.8 µM	0.912 µM	14.4 µM	7.39 µM	22 µM	0.441 µM	10.5 µM	2.18 µM	11.6 µM	6.11 µM	22.2 µM	532 nM	3.7 µM	1.53 µM	12.5 µM	0.446 µM	11.5 µM
CC1C=CC(OC(=O)C(C)(O)CCC(O)(C(=O)OC2CC(O)C(C(C)C)CC2(C)O)C(C)C)(C(C)C)CC1 (stereo not drawn)	0.844 µM	2.03 µM	0.403 µM	1.86 µM	0.657 µM	1.41 µM	0.656 µM	1.36 µM	0.0916 µM	0.218 µM	0.746 µM	1.71 µM	0.769 µM	1.64 µM	160 nM	0.449 µM	0.182 µM	0.904 µM	0.799 µM	1.59 µM
Cc1cc(C)c(C2CNCc3cc4c(cc32)CNCC4c2c(C)cc(C)cc2C)c(C)c1 (stereo not drawn)	2.06 µg/mL	4.48 µg/mL	11.8 µg/mL	24.9 µg/mL	3.44 µg/mL	13.1 µg/mL	2.42 µg/mL	11.4 µg/mL	1.1 µg/mL	3.22 µg/mL	2.48 µg/mL	6.43 µg/mL	2.92 µg/mL	7.4 µg/mL	2.38 µg/mL	6.14 µg/mL	5.42 µg/mL	20.1 µg/mL	2.53 µg/mL	6.91 µg/mL
CCC(=O)Nc1ccc(N2C(=O)/C(=C/c3ccc(OC)cc3)N=C2c2ccccc2)cc1	10.4 µM	> 50 µM	0.0351 µM	21.1 µM	28 µM	> 50 µM	4.31 µM	14.5 µM	5.57 µM	> 50 µM	16.2 µM	> 50 µM	> 50 µM	> 50 µM	2410 nM	8.9 µM	7.77 µM	> 50 µM	2.1 µM	> 50 µM
COc1cc(C(=O)c2cc(C)c3[nH]c4ccc(O)cc4c3c2C)cc(OC)c1OC	< 0.01 µM	< 0.0189 µM	0.944 µM	> 100 µM	< 0.01 µM	0.326 µM	0.0355 µM		< 0.01 µM	> 100 µM	1.05 µM	> 100 µM	0.457 µM	> 100 µM	< 10 nM		< 0.01 µM	> 44.4 µM	< 0.0185 µM	> 100 µM
